These are literature values, as cited in EP0136475A2, “Novel growth hormone-releasing peptides and method of treating mammals therewith” (The Administrators of The Tulane University Educational Fund, priority 1983, dated 1985).

No end group written: not given here.

In this data set the test system is rat anterior pituitary.

Turning to “hpGRF: growth hormone-releasing factors (GRF) of human pancreatic islet tumor origin (YADAIFTNSYRKVLGQLSARKLLQDIMSRQQGESNQERGARARL-NH2; ends and bridges not checked; UniProt P01286 32-75, looked up)”, under “rat anterior pituitary in vitro and in vivo”, the “growth hormone(GH)-releasing activity” value is “possess growth hormone(GH)-releasing activity”.
As to “hp GRF(1-29)-NH2: a synthetic amidated fragment of the natural hp GRF (YADAIFTNSYRKVLGQLSARKLLQDIMSR-NH2; UniProt P01286 32-60, looked up, fragment)”, the intrinsic biological activity result (reported by Spiess et al.) is “full intrinsic biological activity”.
